Structures can show the parent of a compound that is named as a salt.
Key:
Format in all cases: cell-based
[1] = system: Escherichia coli uptake by RAW 264.7 macrophages; test: CFU-less assay (CLA) screen of 2,400 approved drugs for modulators of bacterial uptake
[2] = system: bacterial uptake; test: CFU plating to confirm uptake enhancement
Procedure: CFU plating was performed to confirm the enhancement.

[3] = system: Salmonella species; test: Attenuation of infection by Salmonella
[4] = system: Pseudomonas species; test: Attenuation of infection by Pseudomonas
[5] = system: Klebsiella species; test: Attenuation of infection by Klebsiella
[6] = system: Acinetobacter species; test: Attenuation of infection by Acinetobacter
[7] = system: intracellular and extracellular bacterial strains in RAW 264.7 macrophages; test: Uptake and intracellular survival of bacterial strains in RAW 264.7 macrophages (FIG. 21)
Source text: This confirms the results of the screen and expands potential uses. Quinacrine was previously known as an antiparasitic, an anti-inflammatory agent, intrapleural sclerosing agent, a pneumothorax prophylaxis, Creutzfeldt-Jakob disease (CJI)) therapy, and as an anticancer agent (FIG. 21).

[8] = system: E. coli; test: Axenic growth of bacteria (CFU-less assay / optical density); details: varying amounts of compound, FIG. 19
Source text: In some embodiments, methods for measuring bacterial growth rate in axenic culture are described. The methods comprise: • (a) expressing in the bacteria a fluorescent protein; • (b) growing the bacteria in axenic culture; and • (c) measuring fluorescence in the culture at regular intervals.
The CFU-less assay can reliably detect compound cytotoxicity in axenic medium. The compound(s) of interest were combined with either the host cell or the pathogen in an axenic medium to analyze toxicity of the compound(s) on the host cell or pathogen. The graphs below show an example of how the compounds from the screen affect axenic growth of E. coli. The effects of the compounds on axenic growth of E. coli were minimal.

CO[C@H]1C[C@H](O[C@H]2[C@H](C)O[C@@H](O[C@@H]3/C(C)=C/C[C@@H]4C[C@@H](C[C@]5(C=C[C@H](C)[C@@H](C6CCCCC6)O5)O4)OC(=O)[C@@H]4C=C(C)[C@@H](O)[C@H]5OC/C(=C\C=C\[C@@H]3C)[C@]54O)C[C@@H]2OC)O[C@@H](C)[C@@H]1O [Doramectin]
bacterial uptake in the presence of the compound (FIG. 2) [1]: increase in bacterial uptake
confirmation of uptake enhancement by CFU plating [2]: enhancement

CCN(CC)CCCC(C)Nc1c2ccc(Cl)cc2nc2ccc(OC)cc12 (stereo not shown) [Quinacrine hydrochloride]
intracellular load of bacteria ([1]; screen of 2,400 compounds): decreases the intracellular load of bacteria
infection by Salmonella species [3]: attenuated infection
infection by Pseudomonas species [4]: attenuated infection
infection by Klebsiella species [5]: attenuated infection
infection by Acinetobacter species [6]: attenuated infection
intracellular survival of both intracellular and extracellular bacterial strains [7]: inhibitory effect
uptake of both intracellular and extracellular bacterial strains (dT) ([7]; FIG. 21): inhibitory effect (increased dT)

Polymyxin B sulfate
gram-negative bacterial growth in axenic culture [8]: inhibition of gram-negative bacterial growth

Source: US12630856B2, “Identification of host-targeting modulators of bacterial uptake and assay for quantifying intracellular bacteria” (priority 2020, dated 2026)
